In brackets after ≈: the same amount, converted by molar mass.

Broadly, the MFC is the lowest tested concentration that kills the fungus rather than only halting it. For orientation: MIC means the least concentration at which growth counts as inhibited.

Series [1] deals with maximal electroshock seizures. Description: Maximal electroshock seizure (MES) test. It is filed as in vivo, mouse. The settings on record: mice; for responders at 100 mg/kg: 100 mg/kg ip, read-out: X/Y number of mice protected (X) per number of mice tested (Y) (converted). The protocol: For in vivo tests that assessed anticonvulsant properties of the test compounds 3a–3j adult male Albino Swiss (CD-1) mice weighing between 18 and 22 g were used. The animals were housed in groups of ten mice per cage at room temperature of 22 ± 2 °C, under light/dark (12:12) cycle. The animals had free access to food and tap water before the experiments. The ambient temperature of the experimental room and humidity (50 ± 10%) were kept consistent throughout all the tests. For behavioral experiments the animals were selected randomly. Each experimental group consisted of 4–8 animals/dose. The experiments were performed between 9 AM and 2 PM. Immediately after the in vivo assay the animals were euthanized by cervical dislocation. All procedures were approved by the Local Ethics Committee of the Jagiellonian University in Krakow (34/2018, 1.02.2018)) and the treatment of animals was in full accordance with ethical standards laid down in respective Polish and EU regulations (Directive No. 86/609/EEC). For in vivo tests the compounds 3a–3j were prepared in 1% Tween 80 solution (POCH, Poland) and they were administered by the intraperitoneal route. Control mice received 1% Tween 80. Pentylenetetrazole (PTZ), pilocarpine hydrochloride and scopolamine butylbromide were provided by Sigma Aldrich (Poland). For the tests they were prepared in 0.9% saline (Polfa Kutno, Poland). PTZ and pilocarpine were administered 60 min after the test compound or vehicle. To assess anticonvulsant properties of the test compounds anticonvulsant screening was conducted. Four assays were used: PTZ, maximal electroshock seizure (MES), 6-Hz and pilocarpine tests. In these assays the dose of 100 mg/kg was chosen as a starting dose. If it turned out to be effective, a lower dose (30 mg/kg) was also tested. MES test was performed according to a method previously described (Sałat et al. [2005]). In this test vehicle-treated mice and drug-treated mice received a stimulus of 25 mA delivered by an electroshock generator (Hugo Sachs rodent shocker, Germany) to induce maximal seizures (tonic extension) of hind limbs. Electroconvulsions were produced with the use of auricular electrodes and the stimulus duration was 0.2 s. Tonic extension of the hind limbs was regarded as the endpoint for this procedure.
Background: Protection in the maximal electroshock model is a classic sign of anticonvulsant action.

The test system of a further series is L929 and VERO cell lines. The series is described as follows: MTT cytotoxicity assay. The class given is cell-based, mouse; African green monkey. The conditions noted are these: 24 h, higher concentrations not reached due to limited solubility. (Tetrazolium assays rely on reduction of a dye to a coloured formazan, in cell work by metabolically active cells.)
For series [2], the system named is Candida albicans ATCC 10231. Description: Broth microdilution MIC/MFC, reference strain. The settings on record: Candida albicans, ATCC10231, C. albicans ATCC 10231; for MFC: read-out: MFC; for MIC: read-out: MIC. The class given is cell-based. The source says:
(§1) The examined compounds 3a–3j were screened in vitro for antibacterial and antifungal activities using the broth microdilution method according to European Committee on Antimicrobial Susceptibility Testing (EUCAST) (EUCAST [2003]) and Clinical and Laboratory Standards Institute guidelines (CLSI [2012]) against reference strains of microorganisms from American Type Culture Collection (ATCC), including fungi belonging to yeasts (Candida albicans ATCC 2091, Candida albicans ATCC 10231, Candida parapsilosis ATCC 22019 and Candida krusei ATCC 14243).
(§2) In the study of antifungal activity of the compounds 3a–3j, 15 clinical strains of different species of yeasts from Candida species, namely C. albicans, C. dubliniensis C. famata, C. inconspicua, C. krusei, C. tropicalis, C. glabrata, C. lambica, C. kefyr, C. lusitaniae, C. parapsilosis, C. guilliermondii, C. lusitaniae, C. pulcherrima and C. sake were also used. These fungi were isolated by the author (from Department of Pharmaceutical Microbiology of Medical University in Lublin, Poland) from different clinical materials, e.g., from upper respiratory tract of hospitalized patients including cancer patients (i.e., with non-small cell lung cancer or hematological malignancies). Some patients were after pre-operative or post-operative chemotherapy (treated with etoposide or cis-platin given in doses according to the standard procedures), patients with chronic hepatitis C (undergoing peginterferon and ribavirin therapy or without antiviral therapy), patients with diabetes, elderly people, aged of 65 years old or older, staying in close population, such as a care centre and people staying outside the home care. The Ethical Committee of the Medical University of Lublin approved the study protocol (No. KE-0254/75/2011). The isolates were identified by standard diagnostic methods—biochemical microtest, e.g., API 20C AUX, ID 32C, API Candida (bioMérieux) on the basis of assimilation of various substrates. All the used microbial cultures were first subcultured on nutrient agar or Sabouraud agar for bacteria and fungi, respectively. The RPMI 1640 with MOPS (for fungi) were inoculated with the suspensions of fungal species. Microbial suspensions were prepared in sterile saline (0.85% NaCl) with an optical density of 0.5 McFarland standard scale (Wiegand et al. [2008]). Samples containing examined compounds were dissolved in dimethyl sulfoxide (DMSO). Furthermore, fungal suspensions were put onto Petri dishes with solid media containing 2 mg/ml of the tested compounds followed incubation under appropriate conditions. The inhibition of microbial growth was judged by comparison with a control culture prepared without any sample tested. Nystatin (Sigma) was used as a reference antifungal compound. Subsequently MIC minimal inhibitory concentration (MIC) of the compounds was examined by the microdilution broth method, using their two-fold dilutions in RPMI 1640 broth with MOPS prepared in 96-well polystyrene plates. Final concentrations of the compounds ranged from 1000 to 0.0038 µg/ml. Microbial suspensions were prepared in sterile saline with an optical density of 0.5 McFarland standard. Next fungal suspension was added per each well containing broth and various concentrations of the examined compounds. After incubation, the MIC was assessed spectrophotometric as the lowest concentration of the samples showing complete fungal growth inhibition. Appropriate DMSO, growth and sterile controls were carried out. The medium with no tested substances was used as a control (Wiegand et al. [2008]). The minimal fungicidal concentration (MFC) are defined as the lowest concentration of the compounds that is required to kill a particular fungal species. MFC was determined by removing the culture using for MIC determinations from each well and spotting onto appropriate agar medium. The plates were incubated. The lowest compounds concentration with no visible growth observed was assessed as a fungicidal concentration. […]
For orientation: Dilution methods test growth across graded concentrations, often in twofold steps.

The subject of series [3] is Candida krusei ATCC 14243. The series is described as follows: Broth microdilution MIC/MFC, reference strain. The settings on record: Pichia kudriavzevii, ATCC14243, C. krusei ATCC 14243; for MFC: read-out: MFC; for MIC: read-out: MIC. It is filed as cell-based.
From the text: as §1, §2

The subject of series [4] is Candida parapsilosis ATCC 22019. Description: Broth microdilution MIC/MFC, reference strain. It is filed as cell-based. The conditions noted are these: Lodderomyces parapsilosis, ATCC22019, C. parapsilosis ATCC 22019; for MFC: read-out: MFC; for MIC: read-out: MIC.
From the text: as §1, §2

Series [5] deals with Candida albicans ATCC 2091. The series is described as follows: Broth microdilution MIC/MFC, reference strain. The settings on record: Candida albicans, ATCC2091, C. albicans ATCC 2091; for MFC: read-out: MFC; for MIC: read-out: MIC. It is filed as cell-based.
From the text: as §1, §2

Consider `Brc1ccc(-c2csc(N/N=C/C3CC3)n2)cc1` [Compound 3b, (E)-4-(4-Bromophenyl)-2-(2-(cyclopropylmethylene)hydrazinyl)thiazole], for which the responders at 100 mg/kg in series [1] (Mus musculus, MES test) was 37.5%. Besides, in the series with L929 and VERO cell lines, the “highest possible non-cytotoxic concentration” value worked out at 7.81 µg/mL. Also, the MFC in series [2] came out at 0.24 µg/mL (≈ 0.745 µM); in series [3] it was 0.98 µg/mL (≈ 3.04 µM); in series [4], 1.95 µg/mL (≈ 6.05 µM); in series [5], 0.98 µg/mL (≈ 3.04 µM). The MIC in series [2] stood at 0.06 µg/mL (≈ 0.186 µM); in series [3], 0.24 µg/mL (≈ 0.745 µM); in series [4], 0.48 µg/mL (≈ 1.49 µM); in series [5], 0.12 µg/mL (≈ 0.372 µM).
In the case of `COc1ccc(-c2csc(N/N=C/C3CC3)n2)cc1` [Compound 3f, (E)-2-(2-(Cyclopropylmethylene)hydrazinyl)-4-(4-methoxyphenyl)thiazole], the responders at 100 mg/kg in series [1] (Mus musculus, MES test) was 50%. Moreover, in the series with L929 and VERO cell lines, the “highest possible non-cytotoxic concentration” value was 31.25 µg/mL. The MFC in series [2] was 0.03 µg/mL (≈ 0.11 µM); in series [3], 0.98 µg/mL (≈ 3.59 µM); in series [4] it was 3.91 µg/mL (≈ 14.3 µM); in series [5], 1.95 µg/mL (≈ 7.13 µM). Moreover, the minimal inhibitory concentration (MIC) amounted to 0.015 µg/mL (≈ 0.0549 µM) in series [2], 0.48 µg/mL (≈ 1.76 µM) in series [3], 0.48 µg/mL (≈ 1.76 µM) in series [4] and 0.24 µg/mL (≈ 0.878 µM) in series [5].
As for `Clc1ccc(-c2csc(N/N=C/C3CC3)n2)cc1` [Compound 3c, (E)-4-(4-Chlorophenyl)-2-(2-(cyclopropylmethylene)hydrazinyl)thiazole], the “animals with reduced seizures” value in series [1] (MES test, 100 mg/kg) is 75%. Moreover, the responders at 30 mg/kg in series [1] (Mus musculus, MES test, 30 mg/kg ip, read-out: X/Y number of mice protected (X) per number of mice tested (Y)) worked out at 0%. Further, the responders at 100 mg/kg in series [1] (Mus musculus, MES test) was 75%. Moreover, the “anticonvulsant activity in MES test” value in series [1] (30 mg/kg) is listed as “not active”. The “highest possible non-cytotoxic concentration” value in the series with L929 and VERO cell lines was 7.81 µg/mL. For the same molecule, the MFC amounted to 0.24 µg/mL (≈ 0.864 µM) in series [2], 0.98 µg/mL (≈ 3.53 µM) in series [3], 1.95 µg/mL (≈ 7.02 µM) in series [4] and 0.48 µg/mL (≈ 1.73 µM) in series [5]. Moreover, the minimal inhibitory concentration (MIC) is 0.12 µg/mL (≈ 0.432 µM) in series [2], 0.12 µg/mL (≈ 0.432 µM) in series [3], 0.48 µg/mL (≈ 1.73 µM) in series [4] and 0.12 µg/mL (≈ 0.432 µM) in series [5].

The values are drawn from publication PMC6133161, “Thiazoles with cyclopropyl fragment as antifungal, anticonvulsant, and anti-Toxoplasma gondii agents: synthesis, toxicity evaluation, and molecular docking study” (Medicinal Chemistry Research, 2018).
